{
  "source": "patent US20260373132A1",
  "about": "“PERK INHIBITORHC-5404 IN COMBINATION WITH ANTI-PD-1 ANTIBODY AND/OR AN ANTIANGIOGENETIC AGENT FOR USE IN THE TREATMENT OF CANCER” (HIBERCELL, INC., priority 2022, published 2026)",
  "key": {"[1]": {"biological_target": "BLK (Homo sapiens, UniProt P51451)", "sequence (P51451 whole entry, canonical isoform)": "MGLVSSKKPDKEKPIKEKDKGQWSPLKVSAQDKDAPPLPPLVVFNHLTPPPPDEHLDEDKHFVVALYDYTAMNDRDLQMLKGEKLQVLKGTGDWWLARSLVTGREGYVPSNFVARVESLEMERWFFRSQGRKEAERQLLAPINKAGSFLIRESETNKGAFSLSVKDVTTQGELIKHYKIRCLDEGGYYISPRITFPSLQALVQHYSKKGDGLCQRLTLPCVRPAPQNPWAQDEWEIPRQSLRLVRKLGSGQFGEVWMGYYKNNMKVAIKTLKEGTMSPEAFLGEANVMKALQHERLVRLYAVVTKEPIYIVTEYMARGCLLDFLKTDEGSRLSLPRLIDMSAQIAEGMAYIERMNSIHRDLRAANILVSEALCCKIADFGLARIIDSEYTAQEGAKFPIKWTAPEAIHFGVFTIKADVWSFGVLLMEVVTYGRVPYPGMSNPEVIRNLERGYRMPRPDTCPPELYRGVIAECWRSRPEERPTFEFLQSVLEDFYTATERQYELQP", "experiment": "KINOMEScan biochemical panel assay, BLK", "format": "binding", "settings": "1000 nM", "protocol": "The selectivity of HC-5404 against the broader kinome was then evaluated using a KINOMEScan biochemical panel assay that measured binding against 468 unique kinases, including 403 wild-type human kinases and 59 mutant isoforms."}, "[2]": {"tested_on": "pPERK in 786-O tumors", "experiment": "pPERK in 786-O tumor xenografts", "format": "in vivo, mouse"}, "[3]": {"tested_on": "Capan-2 pancreatic tumor xenografts", "experiment": "CAPAN-2 pancreatic xenograft tumor growth", "format": "in vivo, mouse", "settings": "for TGI: 48 days"}, "[4]": {"tested_on": "A498 RCC xenograft", "experiment": "A498 RCC xenograft tumor growth", "format": "in vivo, mouse", "protocol": "Xenograft RCC models were generated as follows: Female NOD.SCID mice (6-8 weeks of age) were injected with A498 RCC cells (5×10^6 cells/mouse), female Balb/c Nude mice (6-8 weeks old) were implanted with 786-O RCC cells (5×10^6 cells/mouse) or Caki-1 RCC cells (6×10^6 cells/mouse), female Athymic Nude-Foxn1nu mice (7-8 weeks of age) were implanted with MFE280 endometrial cells (10×10^6 cells/mouse). Cells were implanted into the flank of animals.\nOnce tumor tumors reached volume of typically 150-250 mm^3, animals were randomized by tumor volume into the treatment groups of 8 or 10 animals per group. In the single animal trial with RCC PDX models, only one animal per group was enrolled.\nBody weight and tumor volume were measured twice weekly. Tumor volume was calculated using the formula [tumor volume (mm^3)=π/6×length×width^2] and plotted as means+SEM. The percentage of tumor growth inhibition was calculated at the end of the study using the formula: […], if ΔT>0, ΔT, mean tumor volume of the drug-treated group on the observation day of the study—mean tumor volume of the drug-treated group on initial day of dosing; ΔC, mean tumor volume of the control group on the observation day of the study—mean tumor volume of the control group on initial day of dosing. Regression was calculated using the formula=100×ΔT/Tinitial, if ΔT<0. Animals with >50% regressions were partial responders. Animals with tumor volume of 0 (no measurable tumor) were considered as complete responders, and animals with <50% tumor regression and 30% growth over the baseline were considered as stable disease. Animals with tumors>30% increase over the baseline were considered progressive disease. The % change in body weight was calculated by the formula (body weight on observation day−body weight on initial day)/body weight on initial day×100%."}, "[5]": {"tested_on": "786-O xenografts progressed on axitinib", "experiment": "growth of 786-O xenografts that progressed on axitinib", "format": "in vivo, mouse", "settings": "single agent 30 mg/kg PO BID, 28 days after progression on axitinib (FIG. 40)", "excerpt": "After 14 days of treatments, 77 mice bearing the largest tumors were rerandomized into four PD arms (n=8), four efficacy arms (n=10), and 5 tumors sampled on day of rerandomization as a baseline. The remaining animals were removed from study.\nDespite initial responses to VEGFR-TKI therapy, tumor regrowth necessitates subsequent rounds of alternate therapies to improve patient outcomes."}, "[6]": {"tested_on": "MB49 syngeneic bladder cancer model", "experiment": "MB49 syngeneic bladder cancer tumor growth", "format": "in vivo, mouse", "protocol": "C57BL/6 mice were subcutaneously inoculated with MB49 cells, and treatment started on day 8 post cell inoculation. A group of animals (n=10/group) received either vehicle, HC-5404 (PO, BID) (3 mg/kg, 10 mg/kg, or 30 mg/kg), 5 mg/kg anti-PD-1 antibody (aPD-1) (RMP1-14) (IP, BIW), or the combination of both. At various timepoints, animals were sacrificed, and flow cytometry was performed on blood or single cell suspensions from tumors or lymph nodes (n=6).\nMB49 (lot #18B016) mouse urothelial carcinoma cell line was purchased from Sigma—The European Collection of Authenticated Cell Cultures (ECACC). Cells were free of human and animal pathogens as tested by h-IMPACT-I and IMPACT-III (IDEXX Bioresearch, Columbia, MO). Additionally, the genetic profile of the cells matched with the ECACC reference standard as tested by STR based DNA fingerprinting assay. Cells were maintained in DMEM with 10% FBS, and cultured up to 4 passages prior to implantation. Cells were harvested at ~80% confluence, washed twice with DMEM without FBS and suspended in DMEM without FBS at 5×10^6 cells/mL for implantation.\n[…] (7-8 week of age) were implanted into the right flank area subcutaneously under Isoflurane anesthesia with 0.5×10^6 MB49 cells/mouse in a total volume of […] on Day 0. Animals were randomized into treatment groups when the average tumor volume reached ~50 mm^3 on Day 5 post inoculation.\nTumor volume was measured twice weekly.\nTumor volume was calculated using the formula [tumor volume (mm^3)=π/6×length×width^2) and plotted as means±SEM. The % T/C (ratio between the tumor volume in the treated group and in the control group) was calculated by the formula 100×ΔT/ΔC, if ΔT>0 of the mean values. ΔT, mean tumor volume of the drug-treated group on the observation day of the study—mean tumor volume of the drug-treated group on initial day of dosing; ΔC, mean tumor volume of the control group on the observation day of the study—mean tumor volume of the control group on initial day of dosing. Regression was calculated using the formula=100×ΔT/Tinitial, if ΔT<0. Animals with <14 mm^3 tumor volume for three consecutive measurements were considered as complete responders and tumors with >50% regressions were partial responders.\nThis example investigated the effect of HC-5404, aPD-1, and HC-5404 in combination with aPD-1 on myeloid cells in tumor microenvironment and T-cell activation following procedures analogous to those described above using MB49 syngeneic model. […] Mice with established syngeneic MB49 tumors were randomized 6 days post tumor inoculation into groups that received either vehicle (0.5% methylcellulose in water, BID, PO), HC-5404 (10 or 30 mg/kg, BID, PO), anti-PD-1 Ab (10 mg/kg, BIW), or both HC-5404 and anti-PD-1."}},
  "data": [
    {"compound": "Cc1cc(NC(=O)[C@H](O)c2cc(F)cc(F)c2)ccc1-c1cnc(N)c(C(=O)NC(C)C)c1", "note": "[HC-5404, (R)-2-amino-5-(4-(2-(3,5-difluorophenyl)-2-hydroxyacetamido)-2-methylphenyl)-N-isopropylnicotinamide]", "values": [
      {"measurement": "inhibition of BLK", "setting": "[1]", "result": "inhibited"},
      {"measurement": "pPERK expression in 786-O", "setting": "[2]; 30 mg/kg PO BID, seven days (FIG. 30)", "result": "strongly inhibited pPERK expression"},
      {"measurement": "time of return of pPERK to baseline in 786-O tumors", "setting": "[2]; 30 mg/kg, post dose", "result": "≤ 8", "unit": "h"},
      {"measurement": "pPERK levels in 786-O", "setting": "[2]; DC-101 study, 4 days of treatment (FIG. 37)", "result": "inhibited the pPERK signal"},
      {"measurement": "inhibition at 30 mg/kg", "setting": "[2]; Mus musculus, 786-0, 30 mg/kg, 1 h post dose", "result": "~90", "unit": "%"},
      {"measurement": "VEGFR-TKI-induced pPERK accumulation in 786-O tumors", "setting": "[2]; PD arm, 7 days, HC-5404 in combination with VEGFR-TKIs", "result": "inhibited by the addition of HC-5404"},
      {"measurement": "TGI", "setting": "[3]; 30 mg/kg PO BID", "result": 50, "unit": "%"},
      {"measurement": "TGI", "setting": "[3]; 100 mg/kg PO BID", "result": 43, "unit": "%"},
      {"measurement": "difference between dose levels in TGI", "setting": "[3]; 30 vs 100 mg/kg BID", "result": "No difference between the dose levels"},
      {"measurement": "TGI", "setting": "[4]; 10 and 30 mg/kg PO BID tested, 28 days (FIG. 36)", "result": "~41", "unit": "%"},
      {"measurement": "TGI", "setting": "[4]; single agent: HC-5404 30 mg/kg PO BID or sunitinib 20 mg/kg PO QD (FIG. 31)", "result": "~ 40%"},
      {"measurement": "tumor growth inhibition relative to vehicle", "setting": "[5]", "result": 47, "unit": "%"},
      {"measurement": "TGI %", "setting": "[6]; Experiment #1, HC-5404 30 mpk, aPD-1, alone or combined", "result": 52.99, "unit": "%"},
      {"measurement": "TGI %", "setting": "[6]; Experiment #2, HC-5404 30 mpk, aPD-1, alone or combined", "result": 10.64, "unit": "%"},
      {"measurement": "tumor growth inhibition (TGI)", "setting": "[6]; HC-5404 PO BID, aPD-1 5 mg/kg IP BIW, alone or combined", "result": 32, "unit": "%"},
      {"measurement": "TGI %, average", "setting": "[6]; average of two independent studies, HC-5404 30 mpk, aPD-1, alone or combined", "result": 31.82, "unit": "%"}
    ]}
  ]
}
